{"source": "paper PMC10671431", "about": "“New Derivatives of N-Hydroxybutanamide: Preparation, MMP Inhibition, Cytotoxicity, and Antitumor Activity” (International Journal of Molecular Sciences, 2023)", "key": {"U-251 MG": {"test_system": "U-251 MG", "assay": "Cytotoxicity, MTT test", "assay_type": "cell-based", "settings": "Homo sapiens, 72 h of exposure", "procedure": "(§1) Cell culture. A-172 (human glioblastoma cells), HepG2 (human hepatocellular carcinoma cells), M-HeLa (human cervical adenocarcinoma cells, M subclone), Vero (African green monkey kidney epithelial cells), and FetMSC (human embryonic mesenchymal stem cells) were purchased from the Russian Collection of Cell Cultures of Vertebrates (Institute of Cytology RAS, St. Petersburg, Russia). The U-251 MG cell line (human glioblastoma-astrocytoma) was purchased from the European Collection of Authenticated Cell Cultures (Salisbury, UK). All cells were grown at 37 °C in an atmosphere of 5% CO2. A-172 and Vero cells were cultured in DMEM medium (PanEco, Moscow, Russia). HepG2, HeLa, and U-251 MG cells were cultured in EMEM medium (PanEco). FetMSC cells were cultured in F12/DMEM medium (PanEco). All incubation media were supplemented with 10% fetal calf serum (BioWest, Nuaillé, France), 50 U/mL penicillin, and […] streptomycin (PanEco). Additionally, media for HeLa, HepG2, and U-251 MG cells were supplemented with 2 mM glutamine (PanEco) and 1% essential amino acids (PanEco), media for A-172 and Vero cells were supplemented with 4 mM glutamine, and the medium for FetMSC cells was supplemented with 3 mM glutamine. The medium for U-251 MG cells was additionally supplemented with 1 mM sodium pyruvate (PanEco).\n(§2) Cytotoxicity studies. The cytotoxicity of the compounds was assessed using the MTT test. Cells were seeded into 96-well plates at varying concentrations of 5 × 10^4 cells/mL (A-172, Vero and HeLa), 7 × 10^4 cells/mL (HepG2 and U-251 MG), and 10 × 10^4 cells/mL (FetMSC). The studied compounds were added to the incubation medium 24 h after seeding at concentrations ranging from 7.8 μM to 500 μM. All compounds were dissolved in DMSO and diluted with the incubation medium to their final concentrations just before use. The incubation medium in wells was aspirated and replaced with medium containing the studied compounds. The final concentration of DMSO in all samples was 0.1%. Control samples were treated with 0.1% DMSO. After 72 h of exposure, 3-(4,5-dimethylthiazol-2-yl)-2,5-diphenyl-2H-tetrazolium bromide (MTT) (Dia-M, Moscow, Russia) was added to the incubation medium at a concentration of 0.5 mg/mL. The resulting MTT-formazan crystals were dissolved in DMSO. The optical density was measured at 570 nm with a background wavelength of 620 nm using a Spark 10M plate reader. IC50 values were determined using a median effect analysis from the dose–effect relationships."}, "[1]": {"assay": "Cytotoxicity, MTT test, statements on all cell lines studied", "assay_type": "cell-based", "settings": "human, African green monkey, 72 h of exposure, summary over cell lines, read-out: cytotoxicity IC50, cells in general", "procedure": "as §1, §2"}, "Vero": {"test_system": "Vero", "assay": "Cytotoxicity, MTT test", "assay_type": "cell-based, African green monkey", "settings": "Chlorocebus sabaeus, Vero, 72 h of exposure", "procedure": "as §1, §2"}, "HepG2": {"test_system": "HepG2", "assay": "Cytotoxicity, MTT test", "assay_type": "cell-based, human", "settings": "Homo sapiens, HepG2, 72 h of exposure", "procedure": "as §1, §2"}, "A-172": {"test_system": "A-172", "assay": "Cytotoxicity, MTT test", "assay_type": "cell-based, human", "settings": "Homo sapiens, A 172, 72 h of exposure", "procedure": "as §1, §2"}, "HeLa": {"test_system": "HeLa", "assay": "Cytotoxicity, MTT test", "assay_type": "cell-based, human", "settings": "Homo sapiens, HeLa, 72 h of exposure", "procedure": "as §1, §2"}, "FetMSC": {"test_system": "FetMSC", "assay": "Cytotoxicity, MTT test", "assay_type": "cell-based, human", "procedure": "as §1, §2"}, "B16 melanoma": {"test_system": "B16 melanoma", "assay": "Antimetastatic activity in vivo, lung metastases", "parameters": "species or system mouse", "procedure": "Antitumor activity in vivo. The B16 mouse melanoma was used as a tumor model. The B16 melanoma tumor strain was induced in male BDF1 mice by subcutaneous inoculation of 0.2–0.5 mL of a suspension of tumor tissue in medium 199 at intervals of 12–16 days. For the experiments, BDF1 mice were inoculated with 0.3 mL of a suspension of tumor tissue diluted in a 0.9% NaCl solution at a ratio of 1:5 subcutaneously on the right side.\nCompound 4 was dissolved in a 0.9% NaCl solution with 1% DMSO. […] Control animals were injected intraperitoneally with 1% DMSO in saline (0.9% NaCl) in the same volumes as the test compounds.\nAnd MNMcont. are the mean number of metastases in the experimental and control groups, respectively."}, "[2]": {"settings": "lungs, B16 melanoma, BDF1 mice, doses as in Table 5"}}, "data": [{"compound": "O=C(CCC(=O)Nc1ccc(I)cc1)NO", "note": "[Compound 4, N^1-hydroxy-N^4-(4-iodophenyl)butanediamide]", "values": [{"measurement": "IC50", "setting": "U-251 MG", "value": "401 ± 21.1", "unit": "µM"}, {"measurement": "IC50 at 72 h", "setting": "[1]", "value": "> 100", "unit": "µM"}, {"measurement": "IC50", "setting": "Vero", "value": "> 500", "unit": "µM"}, {"measurement": "IC50", "setting": "HepG2", "value": "488 ± 23.9", "unit": "µM"}, {"measurement": "IC50", "setting": "A-172", "value": "418 ± 17.4", "unit": "µM"}, {"measurement": "IC50", "setting": "HeLa", "value": "297 ± 15.7", "unit": "µM"}, {"measurement": "IC50", "setting": "FetMSC; Homo sapiens, 72 h of exposure, MTT", "value": "> 500", "unit": "µM"}, {"measurement": "toxicity to FetMSC cells", "setting": "FetMSC; only at the highest concentration", "value": "some toxicity"}, {"measurement": "reduction of the number of animals with metastases in the group", "setting": "B16 melanoma; 300 mg/kg i.p. days 2–9", "value": 50, "unit": "%"}, {"measurement": "% Inhibition of Metastases", "setting": "B16 melanoma; [2]", "value": 88.6, "unit": "%"}, {"measurement": "Mean Number of Metastases per Mouse", "setting": "B16 melanoma; [2]", "value": "1.3 ± 0.9"}, {"measurement": "Metastasis Rate, %", "setting": "B16 melanoma; [2]", "value": 50, "unit": "%"}, {"measurement": "Number of Animals without Metastases", "setting": "B16 melanoma; of 6 animals in the group, lungs, B16 melanoma, BDF1 mice, doses as in Table 5", "value": 3}]}]}
